Source: ChEMBL document CHEMBL4196026, “Novel Tacrine-Hydroxyphenylbenzimidazole hybrids as potential multitarget drug candidates for Alzheimer's disease” (Eur J Med Chem, 2018)
Activity calls are given as the source filed them. The rule behind the calls is not given here.

Key:
[1] = Copper chelating activity assessed as inhibition of Cu2+-induced amyloid beta (1 to 42) aggregation at 40 uM measured after 24 hrs by ThT fluorescence assay relative to control
SH-SY5Y [2] = experiment: Cytotoxicity against human SH-SY5Y cells assessed as reduction in cell viability at 1 uM after 24 hrs MTT assay; type: cell-based
[3] = target: Amyloid-beta precursor protein (Homo sapiens) (UniProt P05067); experiment: Inhibition of self-induced amyloid beta (1 to 42) (unknown origin) aggregation at 40 uM measured after 24 hrs by ThT fluorescence assay relative to control
Sequence of Amyloid-beta precursor protein (Homo sapiens) (P05067 whole entry): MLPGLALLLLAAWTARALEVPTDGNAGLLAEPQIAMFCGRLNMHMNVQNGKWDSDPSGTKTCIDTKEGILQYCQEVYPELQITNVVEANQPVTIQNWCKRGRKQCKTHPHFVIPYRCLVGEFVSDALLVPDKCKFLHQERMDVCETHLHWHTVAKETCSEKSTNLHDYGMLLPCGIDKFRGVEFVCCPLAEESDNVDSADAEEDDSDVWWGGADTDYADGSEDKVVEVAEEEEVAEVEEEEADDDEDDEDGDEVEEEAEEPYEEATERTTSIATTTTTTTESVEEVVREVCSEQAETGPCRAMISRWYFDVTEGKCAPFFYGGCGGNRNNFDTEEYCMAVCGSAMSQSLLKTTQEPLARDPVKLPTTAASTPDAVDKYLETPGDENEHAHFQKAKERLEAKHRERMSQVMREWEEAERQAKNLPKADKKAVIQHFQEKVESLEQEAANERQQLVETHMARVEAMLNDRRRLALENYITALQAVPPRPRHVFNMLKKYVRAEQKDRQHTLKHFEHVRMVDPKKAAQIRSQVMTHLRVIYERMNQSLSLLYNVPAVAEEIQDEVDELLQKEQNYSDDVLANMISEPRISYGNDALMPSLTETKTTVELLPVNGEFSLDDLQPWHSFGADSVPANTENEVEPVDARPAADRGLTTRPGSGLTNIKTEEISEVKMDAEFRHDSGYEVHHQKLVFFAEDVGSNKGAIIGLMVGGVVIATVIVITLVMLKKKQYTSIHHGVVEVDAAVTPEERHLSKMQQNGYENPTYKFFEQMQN

SH-SY5Y [4] = experiment: Neuroprotection against amyloid beta (1 to 42)-induced toxicity in human SH-SY5Y cells assessed as increase in cell viability at 1 uM preincubated for 1 hr followed by amyloid beta (1 to 42) addition and measured after 24 hrs MTT assay; type: functional, cell-based
SH-SY5Y [5] = experiment: Neuroprotection against Fe/LAscH(-)-induced toxicity in human SH-SY5Y cells assessed as increase in cell viability at 1 uM preincubated for 1 hr followed by Fe/LAscH(-) addition and measured after 24 hrs MTT assay; type: functional, cell-based
Acetylcholinesterase = Acetylcholinesterase (Electrophorus electricus, UniProt O42275); experiment: Inhibition of electric eel AChE using acetylthiocholine iodide as substrate preincubated for 15 mins followed by addition of substrate measured after 5 mins
Sequence of Acetylcholinesterase (O42275 whole entry): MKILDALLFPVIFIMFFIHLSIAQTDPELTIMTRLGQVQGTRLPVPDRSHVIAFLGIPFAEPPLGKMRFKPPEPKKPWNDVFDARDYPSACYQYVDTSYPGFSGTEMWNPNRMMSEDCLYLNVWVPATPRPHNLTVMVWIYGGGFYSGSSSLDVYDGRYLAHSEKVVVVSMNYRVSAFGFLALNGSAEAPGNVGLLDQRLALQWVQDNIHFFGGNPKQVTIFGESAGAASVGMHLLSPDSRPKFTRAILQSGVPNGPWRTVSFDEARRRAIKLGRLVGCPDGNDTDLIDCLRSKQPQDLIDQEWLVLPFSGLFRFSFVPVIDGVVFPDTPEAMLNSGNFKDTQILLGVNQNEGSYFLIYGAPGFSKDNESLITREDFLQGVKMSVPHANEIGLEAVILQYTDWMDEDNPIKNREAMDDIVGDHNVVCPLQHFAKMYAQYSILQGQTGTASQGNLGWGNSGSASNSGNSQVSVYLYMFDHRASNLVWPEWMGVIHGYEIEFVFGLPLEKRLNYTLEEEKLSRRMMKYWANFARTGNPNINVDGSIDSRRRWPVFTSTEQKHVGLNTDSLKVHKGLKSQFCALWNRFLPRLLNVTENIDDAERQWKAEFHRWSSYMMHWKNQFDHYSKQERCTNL

SH-SY5Y [6] = experiment: Cytotoxicity against human SH-SY5Y cells assessed as reduction in cell viability at 2.5 uM after 24 hrs MTT assay; type: cell-based
SH-SY5Y [7] = experiment: Neuroprotection against amyloid beta (1 to 42)-induced toxicity in human SH-SY5Y cells assessed as increase in cell viability at 2.5 uM preincubated for 1 hr followed by amyloid beta (1 to 42) addition and measured after 24 hrs MTT assay; type: functional, cell-based
SH-SY5Y [8] = experiment: Neuroprotection against Fe/LAscH(-)-induced toxicity in human SH-SY5Y cells assessed as increase in cell viability at 2.5 uM preincubated for 1 hr followed by Fe/LAscH(-) addition and measured after 24 hrs MTT assay; type: functional, cell-based
[9] = Copper chelating activity assessed as inhibition of Cu2+-induced amyloid beta (1 to 42) aggregation at 80 uM measured after 24 hrs by ThT fluorescence assay relative to control
[10] = Copper chelating activity assessed as inhibition of Cu2+-induced amyloid beta (1 to 42) aggregation at 50 uM measured after 24 hrs by uranyl acetate staining based TEM analysis
[11] = target: Amyloid-beta precursor protein (Homo sapiens) (UniProt P05067); experiment: Inhibition of self-induced amyloid beta (1 to 42) (unknown origin) aggregation at 50 uM measured after 24 hrs by uranyl acetate staining based TEM analysis
SH-SY5Y [12] = experiment: Neuroprotection against amyloid beta (1 to 42)-induced toxicity in human SH-SY5Y cells assessed as increase in cell viability at 0.1 uM preincubated for 1 hr followed by amyloid beta (1 to 42) addition and measured after 24 hrs MTT assay; type: functional, cell-based
SH-SY5Y [13] = experiment: Cytotoxicity against human SH-SY5Y cells assessed as reduction in cell viability at 0.1 uM after 24 hrs MTT assay; type: cell-based
[14] = Metal chelating activity assessed as compound-Cu2+ complex formation at pH 7.4
SH-SY5Y [15] = experiment: Neuroprotection against Fe/LAscH(-)-induced toxicity in human SH-SY5Y cells assessed as increase in cell viability at 0.1 uM preincubated for 1 hr followed by Fe/LAscH(-) addition and measured after 24 hrs MTT assay; type: functional, cell-based

SMILES	Activity (SH-SY5Y [2])	Activity (SH-SY5Y [4])	Activity (SH-SY5Y [5])	IC50 (Acetylcholinesterase; read-out: IC50) [nM]	inhibition [9] [%]	further results
O=C(NCCNc1c2c(nc3cc(Cl)ccc13)CCCC2)c1ccc2[nH]c(-c3ccccc3O)nc2c1	Non-Toxic	inactive	Active	6.3		inhibition [1]: 20.9%; inhibition [3]: 21.9%
O=C(NCC(O)CNc1c2c(nc3ccccc13)CCCC2)c1ccc2[nH]c(-c3ccccc3O)nc2c1 (centres undefined)				16.8	59.5	Activity (SH-SY5Y [6]): Non-Toxic; Activity (SH-SY5Y [7]): Active; Activity (SH-SY5Y [8]): Active
O=C(NCCCCNc1c2c(nc3cc(Cl)ccc13)CCCC2)c1ccc2[nH]c(-c3ccccc3O)nc2c1	Non-Toxic	Active	Active	142		
O=C(NCC(O)CNc1c2c(nc3cc(Cl)ccc13)CCCC2)c1ccc2[nH]c(-c3ccccc3O)nc2c1 (centres undefined)	Non-Toxic	Active	Active	18.1		
O=C(NCCCCNc1c2c(nc3ccccc13)CCCC2)c1ccc2[nH]c(-c3ccccc3O)nc2c1				208	65.5	
O=C(NCCNc1c2c(nc3ccccc13)CCCC2)c1ccc2[nH]c(-c3ccccc3O)nc2c1				36.4	49.4	
Oc1ccccc1-c1nc2ccccc2[nH]1						IC50 (Acetylcholinesterase): Not Active
O=C(NCCCNc1c2c(nc3ccccc13)CCCC2)c1ccc2[nH]c(-c3ccccc3O)nc2c1				30.9	77.3	inhibition [10]: Active; inhibition [11]: Active
O=C(NCCCNc1c2c(nc3cc(Cl)ccc13)CCCC2)c1ccc2[nH]c(-c3ccccc3O)nc2c1				23.7	55.8	Activity (SH-SY5Y [12]): Active; Activity (SH-SY5Y [13]): Non-Toxic; Kd [14]: 0.01 nM; Activity (SH-SY5Y [15]): Active
